Among the data in patent US4169834A, “Rifamycin derivatives” (Gruppo Lepetit S.p.A., priority 1977, dated 1979) are MIC values, retold here.

≈ marks a conversion by molar mass, not a printed value.

Common to all, as to assay type: cell-based
In one test the test system is Pseud. aeruginosa. In words: in vitro antibacterial activity (MIC), Pseud. aeruginosa. The following applies: Pseudomonas aeruginosa. An excerpt:
(§1) The MIC is expressed as μg/ml.

For the next test, the system named is Escherichia coli. Put plainly: in vitro antibacterial activity (MIC), Escherichia coli.
Text: as §1

For the next test, the system named is Staph. Aureus Tour. In words: in vitro antibacterial activity (MIC), Staph. Aureus Tour. The following applies: Staphylococcus aureus.
Text: as §1

In another test the test system is Strept. faecalis. Put plainly: in vitro antibacterial activity (MIC), Strept. faecalis. The following applies: Enterococcus faecalis.
Text: as §1

The subject of another test is Staph. Aureus. In words: in vitro antibacterial activity (MIC), Staph. Aureus. The following applies: Staphylococcus aureus.
Text: as §1

The subject of a further test is Kleb. pneumoniae. In words: in vitro antibacterial activity (MIC), Kleb. pneumoniae. The note with it: Klebsiella pneumoniae.
Text: as §1

Another test relates to Proteus vulgaris. In words: in vitro antibacterial activity (MIC), Proteus vulgaris.
Text: as §1

Another test relates to Myc. Tub. H37 Rv. Put plainly: in vitro antibacterial activity (MIC), Myc. Tub. H37 Rv.
The subject of the next test is Strept. pneumoniae. In words: in vitro antibacterial activity (MIC), Strept. pneumoniae. The following applies: Streptococcus pneumoniae.
Text: as §1

The test system of another test is Strept. haemolyticus. In words: in vitro antibacterial activity (MIC), Strept. haemolyticus.
Text: as §1

Take `CCc1nc2c(s1)c1c(O)c3c(O)c(C)c4c(c32)C(=O)C(C)(OC=CC(OC)C(C)C(OC(C)=O)C(C)C(O)C(C)C(O)C(C)C=CC=C(C)C(=O)N1)O4` (stereo not shown) [Example 1, 4-Deoxy-2'-ethyl-thiazolo[5,4-c]rifamycin SV]: the minimum inhibitory concentration (MIC) in the test on Pseud. aeruginosa was 12.5 µg/mL (≈ 16.3 µM); with Escherichia coli, 12.5 µg/mL (≈ 16.3 µM); with Staph. Aureus Tour it was 0.00078 µg/mL (≈ 0.00102 µM); with Strept. faecalis, 0.0062 µg/mL (≈ 0.00808 µM); against Staph. Aureus, 0.0004 µg/mL (≈ 0.000522 µM); against Kleb. pneumoniae, 25 µg/mL (≈ 32.6 µM). Besides, the minimum inhibitory concentration (MIC) was found to be 6.25 µg/mL (≈ 8.15 µM) in the test with Proteus vulgaris, 0.31 µg/mL (≈ 0.404 µM) in the test on Myc. Tub. H37 Rv, 0.0062 µg/mL (≈ 0.00808 µM) against Strept. pneumoniae and 0.012 µg/mL (≈ 0.0156 µM) with Strept. haemolyticus.

Turning to `COC1C=COC2(C)Oc3c(C)c(O)c4c(O)c(c5sc(C)nc5c4c3C2=O)NC(=O)C(C)=CC=CC(C)C(O)C(C)C(O)C(C)C(OC(C)=O)C1C` (stereo not shown) [Example 2, 4-Deoxy-2'-methyl-thiazolo[5,4-c]rifamycin SV], the MIC was 25 µg/mL (≈ 33.2 µM) with Pseud. aeruginosa; 12.5 µg/mL (≈ 16.6 µM) in the test with Escherichia coli; 0.0031 µg/mL (≈ 0.00412 µM) in the test with Staph. Aureus Tour; 0.0031 µg/mL (≈ 0.00412 µM) with Strept. faecalis; 0.00078 µg/mL (≈ 0.00104 µM) with Staph. Aureus; 25 µg/mL (≈ 33.2 µM) in the test on Kleb. pneumoniae. For the same compound, the MIC came out at 1.56 µg/mL (≈ 2.07 µM) in the test on Proteus vulgaris, 0.62 µg/mL (≈ 0.824 µM) with Myc. Tub. H37 Rv, 0.0062 µg/mL (≈ 0.00824 µM) in the test on Strept. pneumoniae and 0.0031 µg/mL (≈ 0.00412 µM) in the test on Strept. haemolyticus.

For the compound `CCCc1nc2c(s1)c1c(O)c3c(O)c(C)c4c(c32)C(=O)C(C)(OC=CC(OC)C(C)C(OC(C)=O)C(C)C(O)C(C)C(O)C(C)C=CC=C(C)C(=O)N1)O4` (stereo not shown) [Example 3, 4-Deoxy-2'-propyl-thiazolo[5,4-c]rifamycin SV], the minimal inhibitory concentration (MIC) was 12.5 µg/mL (≈ 16 µM) in the test on Pseud. aeruginosa; 12.5 µg/mL (≈ 16 µM) in the test with Escherichia coli; 0.00156 µg/mL (≈ 0.002 µM) in the test with Staph. Aureus Tour; 0.00156 µg/mL (≈ 0.002 µM) in the test on Strept. faecalis; 0.00078 µg/mL (≈ 0.000999 µM) with Staph. Aureus; 25 µg/mL (≈ 32 µM) against Kleb. pneumoniae. Moreover, the MIC against Proteus vulgaris is 3.12 µg/mL (≈ 4 µM); with Myc. Tub. H37 Rv it was 0.62 µg/mL (≈ 0.794 µM); against Strept. pneumoniae it was 0.00078 µg/mL (≈ 0.000999 µM); in the test with Strept. haemolyticus, 0.0031 µg/mL (≈ 0.00397 µM).

On to `COC1C=COC2(C)Oc3c(C)c(O)c4c(O)c(c5sc(C(C)C)nc5c4c3C2=O)NC(=O)C(C)=CC=CC(C)C(O)C(C)C(O)C(C)C(OC(C)=O)C1C` (stereo not shown) [Example 4, 4-Deoxy-2'-isopropyl-thiazolo[5,4-c]rifamycin SV], for which the minimum inhibitory concentration (MIC) was determined as 12.5 µg/mL (≈ 16 µM) with Pseud. aeruginosa; 12.5 µg/mL (≈ 16 µM) in the test with Escherichia coli; 0.00156 µg/mL (≈ 0.002 µM) with Staph. Aureus Tour; 0.012 µg/mL (≈ 0.0154 µM) against Strept. faecalis; 0.00078 µg/mL (≈ 0.000999 µM) with Staph. Aureus; 25 µg/mL (≈ 32 µM) against Kleb. pneumoniae. Also, the MIC against Proteus vulgaris came out at 6.25 µg/mL (≈ 8 µM); with Myc. Tub. H37 Rv, 0.31 µg/mL (≈ 0.397 µM); in the test with Strept. pneumoniae, 0.012 µg/mL (≈ 0.0154 µM); against Strept. haemolyticus it was 0.012 µg/mL (≈ 0.0154 µM).

For `COC1C=COC2(C)Oc3c(C)c(O)c4c(O)c(c5sc(CC(C)C)nc5c4c3C2=O)NC(=O)C(C)=CC=CC(C)C(O)C(C)C(O)C(C)C(OC(C)=O)C1C` (stereo not shown) [Example 5, 4-Deoxy-2'-isobutyl-thiazolo[5,4-c]rifamycin SV], the minimum inhibitory concentration (MIC) came to 12.5 µg/mL (≈ 15.7 µM) against Pseud. aeruginosa; 12.5 µg/mL (≈ 15.7 µM) in the test with Escherichia coli; 0.001 µg/mL (≈ 0.00126 µM) in the test with Staph. Aureus Tour; 0.0062 µg/mL (≈ 0.0078 µM) with Strept. faecalis; 0.00078 µg/mL (≈ 0.000981 µM) against Staph. Aureus; 50 µg/mL (≈ 62.9 µM) against Kleb. pneumoniae. Moreover, the minimal inhibitory concentration (MIC) against Proteus vulgaris turned out to be 3.12 µg/mL (≈ 3.92 µM); against Myc. Tub. H37 Rv it was 0.15 µg/mL (≈ 0.189 µM); with Strept. pneumoniae, 0.0062 µg/mL (≈ 0.0078 µM); in the test on Strept. haemolyticus, 0.001 µg/mL (≈ 0.00126 µM).

Consider `CCCCCCc1nc2c(s1)c1c(O)c3c(O)c(C)c4c(c32)C(=O)C(C)(OC=CC(OC)C(C)C(OC(C)=O)C(C)C(O)C(C)C(O)C(C)C=CC=C(C)C(=O)N1)O4` (stereo not shown) [Example 6, 4-Deoxy-2'-hexyl-thiazolo[5,4-c]rifamycin SV], for which the minimal inhibitory concentration (MIC) in the test with Pseud. aeruginosa was found to be 12.5 µg/mL (≈ 15.2 µM); against Escherichia coli it was 12.5 µg/mL (≈ 15.2 µM); against Staph. Aureus Tour, 0.0031 µg/mL (≈ 0.00377 µM); in the test with Strept. faecalis it was 0.012 µg/mL (≈ 0.0146 µM); with Staph. Aureus, 0.0012 µg/mL (≈ 0.00146 µM); in the test with Kleb. pneumoniae, 25 µg/mL (≈ 30.4 µM). In addition, the minimal inhibitory concentration (MIC) with Proteus vulgaris turned out to be 3.12 µg/mL (≈ 3.79 µM); in the test with Myc. Tub. H37 Rv, 1.2 µg/mL (≈ 1.46 µM); in the test with Strept. pneumoniae it was 0.012 µg/mL (≈ 0.0146 µM); against Strept. haemolyticus, 0.012 µg/mL (≈ 0.0146 µM).

Turning to `COC1C=COC2(C)Oc3c(C)c(O)c4c(O)c(c5scnc5c4c3C2=O)NC(=O)C(C)=CC=CC(C)C(O)C(C)C(O)C(C)C(O)C1C` (stereo not shown) [Example 8, 25-Desacetyl-4-deoxy-thiazolo[5,4-c]rifamycin SV], the MIC in the test with Pseud. aeruginosa was determined as 12.5 µg/mL (≈ 17.9 µM); against Escherichia coli, 6.25 µg/mL (≈ 8.97 µM); against Staph. Aureus Tour it was 0.1 µg/mL (≈ 0.144 µM); with Strept. faecalis, 0.4 µg/mL (≈ 0.574 µM); against Staph. Aureus it was 0.02 µg/mL (≈ 0.0287 µM); in the test with Kleb. pneumoniae, 12.5 µg/mL (≈ 17.9 µM). Moreover, the MIC against Proteus vulgaris came out at 0.78 µg/mL (≈ 1.12 µM); against Myc. Tub. H37 Rv, 0.6 µg/mL (≈ 0.861 µM); with Strept. pneumoniae, 0.1 µg/mL (≈ 0.144 µM); in the test on Strept. haemolyticus, 0.1 µg/mL (≈ 0.144 µM).

As a reminder, the MIC is the least concentration at which growth counts as inhibited.
